pIC50: −log10 of the molar value. “And” between values parts separate entries of the source, which are not always exact repeats. Identical values can stand only once.
Experiments:
PDE4 = assay: Inhibition of PDE4, radioenzymatic phosphodiesterase assay; format: biochemical, bovine
Summary of the method: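 PDE4 partially purified from bovine aortic media by 105,000 g centrifugation and anion-exchange chromatography with an NaCl gradient. Activity measured radioenzymatically: product nucleoside separated from nucleotides by anion exchange and counted by liquid scintillation.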

PDE1 = assay: Selectivity: inhibition of PDE1, radioenzymatic phosphodiesterase assay; format: biochemical, bovine; set-up: PDE1 percentage inhibition at 10 μM: unit: %; conditions: Table 4 Selectivity; compound at 10 μM
Experimental: (§1) A 3 g segment of bovine aortic media cut into pieces with scissors was homogenized with an ultra-turrax then a potter glass/glass homogenizer in 7 volumes by weight of buffer A containing a protease inhibitor cocktail (20 mM Tris-HCl, 0.25 M saccharose, 2 mM magnesium acetate, 1 mM dithiothreitol, 5 mM EGTA, 2000 U/ml aprotinin, 10 mg/l leupeptin and 10 mg/l soya trypsic inhibitor). The homogenizate was centrifuged at 105,000 g for 1 hour. The supernatant was loaded on a DEAE-Sephacel column (15×1.6 cm) pre-equilibrated with buffer B (buffer A without the saccharose, EGTA and protease inhibitors). The column was washed until there was no detectable absorption at 280 nm, then eluted with a linear gradient of NaCl (0–0.5 M) in buffer B. 3-ml fractions were collected and enzyme activity was determined under the conditions described hereinafter to localize the different enzymes PDE1, PDE3, PDE4 and PDE5, which were aliquoted and frozen at −80° C. (Lugnier et al., Biochem. Phamacol., 35 (1986) 1746–1751). PDE2 was prepared from bovine endothelial cells by the same methods (Lugnier and Schini, Biochem. Pharmacol. 1990, 39; 75–84).
(§2) Cyclic nucleotide phosphodiesterase activity was determined by a radioenzymatic method using tritium-labelled cyclic GMP or AMP (1 μM) as substrate (Lugnier et al., 1986). ^3H-labelled adenosine or guanosine monophosphate formed by hydrolysis of the radiolabelled cyclic nucleotide was then converted to ^3H-labelled adenosine or guanosine in a second reaction with […] in excess. The nucleoside formed was separated from the nucleotides by anion exchange chromatography. Nucleoside radioactivity was determined by liquid scintillation counting. Enzymatic incubations were carried out under conditions allowing no more than 15% hydrolysis of the substrate; each point was performed in duplicate.
(§3) The activity of the compounds was evaluated on other phosphodiesterase isoforms, particularly basal state or calmodulin-activated PDE1 from vascular smooth muscle, basal state or cyclic GMP-activated PDE2 from vascular endothelial cells, PDE3 and PDE5 from vascular smooth muscle.
(§4) The results obtained are presented in Table 4 hereinafter and are expressed as the percentage inhibition of enzymatic activity produced by […] of the tested compound.

PDE5 = molecular target: T1, PDE5 (Bos taurus, UniProt Q28156); assay: Selectivity: inhibition of PDE5, radioenzymatic phosphodiesterase assay; format: biochemical, bovine; conditions: Table 4 Selectivity; compound at 10 μM; read-out: PDE5 percentage inhibition at 10 μM
T1 construct: localize the different enzymes PDE1, PDE3, PDE4 and PDE5, which were aliquoted and frozen; from tissue; host or cells: bovine aortic media (vascular smooth muscle), DEAE-Sephacel fraction
Experimental: as §1, §2, §3, §4

TNFα = TNFα production by LPS-activated mononuclear cells from venous blood (ELISA); format: cell-based; conditions: Homo sapiens
Experimental: Compounds according to the invention were assessed for anti-inflammatory properties on mononuclear cells from venous blood of healthy donors (n=4), by a protocol approved by the Alsace No. 1 Ethics Committee. More specifically, the cells were incubated for 24 hours in 24-well plates in the presence of the test compound, after activation by Salmonella Abortis Equi lipopolysaccharide (LPS) (5 pg/ml) (cf. De Groote et al., Cytokine 4, 1992, 239). After incubation, TNFα concentrations were determined in the culture supernatant by an ELISA method (Antibody Solutions, Half Moon Bay, Calif., USA).

Row | Structure (SMILES) | pIC50 (PDE4; Table 3, formula (II), 1 μM cyclic AMP) | pIC50 (PDE4; Table 4 Selectivity) | PDE1 percentage inhibition at 10 μM (PDE1) | inhibition at 10 µM (PDE5) | inhibition at 1 µM (TNFα; 24 h, read-out: inhibition of TNFα production) | pIC50 (PDE4; Table 2, formula (XXII), 1 μM cyclic AMP) | pIC50 (TNFα; read-out: anti-TNFα activity IC50)
1 | CCOc1cc2c(cc1OC)C(c1ccccc1)=NCC(=O)N2C [IIda, 8-ethoxy-7-methoxy-1-methyl-5-phenyl-1,3-dihydro-2H-1,4-benzodiazepin-2-one] | 6.26 and 6.37 | 6.30 | 26% | 14% | 100% | – | –
2 | CCOc1cc2c(cc1OCC)C(c1ccccc1)=NCC(=O)N2 [XXIIag, 7,8-diethoxy-5-phenyl-1,3-dihydro-2H-1,4-benzodiazepin-2-one] | – | 6.02 | 46% | 35% | – | 6.02 | 6.00 to 7.00

Reference: patent US7250410B2, “Cyclic nucleotide phosphodiesterase inhibitors, preparation and uses thereof” (Via Pharmaceuticals, Inc., priority 2001, dated 2007)
